Measurements as given in patent US6946492B2, “Use of C2-substituted indan-1-one systems for preparing medicaments for the treatment of obesity” (Aventis Pharma Deutschland GmbH, priority 2001, dated 2005).
Blank lines part the entries; values can stand above or below the molecule they belong to.

Tests used:
female NMRI mice = assay: Anorectic action: cumulative milk consumption after removal of feed for 24 hours; format: in vivo; details: for cumulative milk consumption by treated animals: evaporated milk, monitored for 7 hours; for Reduction in cumulative milk consumption as % of the contol: vs control animals
Description: The anorectic action was tested on female NMRI mice. After removal of feed for 24 hours, the preparation to be tested was administered intraperitoneally (ip) or by gavage (po). The animals were housed singly and, with free access to drinking water, they were offered evaporated milk 30 minutes after administration of the preparation. The consumption of evaporated milk was determined and the general behavior of the animals was monitored every half an hour for 7 hours. The measured milk consumption was compared to that of vehicle-treated control animals.

melting point: 90 °C
Structure (SMILES): CSC1Cc2cc(Cl)ccc2C1=O (stereo not shown) [Example 1, 5-Chloro-2-methylsulfanylindan-1-one]
cumulative milk consumption by treated animals (female NMRI mice; 10 mg/kg ip): 05/1.20 ml
Reduction in cumulative milk consumption as % of the contol (female NMRI mice; 10 mg/kg ip): 64%

Structure (SMILES): CS(=O)(=O)C1Cc2cc(Cl)ccc2C1=O (stereo not shown) [Example 2, 5-Chloro-2-methanesulfonylindan-1-one]
cumulative milk consumption by treated animals (female NMRI mice; 20 mg/kg ip): 05/1.16 ml
Reduction in cumulative milk consumption as % of the contol (female NMRI mice; 20 mg/kg ip): 70%

melting point: 89 °C
Structure (SMILES): O=C1c2ccc(Cl)cc2CC1Sc1ccccc1 (stereo not shown) [Example 3, 5-chloro-2-phenylsulfanylindan-1-one]

melting point: 133 °C
Structure (SMILES): O=C1c2ccc(Cl)cc2CC1S(=O)(=O)c1ccccc1 (stereo not shown) [Example 4, 2-benzenesulfonyl-5-chloroindan-1-one]

melting point: 228.87 °C
Structure (SMILES): C[S+]([O-])C1Cc2cc(Cl)ccc2C1=O (stereo not shown) [Example 9, 5-chloro-2-methanesulfinylindan-1-one]
cumulative milk consumption by treated animals (female NMRI mice; 50 mg/kg po): 05/1.16 ml
Reduction in cumulative milk consumption as % of the contol (female NMRI mice; 50 mg/kg po): 73%
